Earlier results as cited in US7592331B2, “Macrocyclic factor VIIa inhibitors useful as anticoagulants” (Bristol-Myers Squibb Company, priority 2005, dated 2009).

Assays:
[1] = tested on: patients undergoing total knee replacement
[2] = tested on: patients undergoing coronary angioplasty
[3] = tested on: patients with acute coronary syndromes

Substance: recombinant nematode anticoagulant protein c2 [rNAPc2]
- deep vein thrombosis [1]: prevents deep vein thrombosis
- systemic thrombin generation [2]: reduces systemic thrombin generation
- magnitude and duration of ischemic events [3]: reduces magnitude and duration of ischemic events
